Data published in US20230310435A1, “HOST DEFENSE PROTEIN (HDP) MIMETICS FOR PROPHYLAXIS AND/OR TREATMENT OF INFLAMMATORY DISEASES OF THE GASTROINTESTINAL TRACT” (priority 2015, published 2023).

Key:
DSS-induced colitis = assay: Dextran sulfate sodium (DSS)-induced acute colitis model; type: in vivo, male C57BL/6 mice; conditions: end of study; brilacidin 400 mg/kg or 5-ASA 50 mg/kg per rectum Days 7-11
Experimental: The efficacy of brilacidin administered was investigated in a murine model of chemically-induced acute colitis using dextran sulfate sodium (DSS). This was a different in vivo model of IBD to the testing performed in Examples 16 and 17 (where mucosal injury was induced by using acetic acid). DSS-induced colitis in mice is characterized by weight loss, bloody diarrhea, intestinal ulcerations and infiltrations with granulocytes. In mice, DSS was administered from Day 0 to Day 11, as a 5% (w/v) DSS solution in the drinking water of male C57BL/6 mice (Kim J J, et al., J. Vis. Exp., 2012, 60, 3678), to induce severe murine colitis. On Days 7-11, test compound brilacidin (400 mg/kg) or positive control 5-ASA (50 mg/kg) or water (negative control) were administered as a solution, per rectum. On Days 6, 10 and 11, rectal bleeding was assessed using a Hemoccult® kit and stool consistency was visually assessed; severity of symptoms were scored on a scale of 0 (normal) to 4 (severe). Level of pro-inflammatory cytokines interleukin (IL)-6 and IL-1β in distal colon tissue were determined from excised colons using conventional ELISA methods.

[1] = test system: acetic acid-induced colitis; type: in vivo
Experimental: (§1) Method for FIG. 14. […] Balb/c mice were fasted for 24 hours. Colitis was induced by injecting 200 μL of 4% acetic acid into the rectum. […] Another group of animals were treated with 5-ASA (5-aminosalicylic acid or mesalamine), and another received no treatment. Seven days after the first dose, five cm of intestine were cleaned in cold saline then weighed.
as §1, with “15.” for “14.”, “dose the colon was examined visually for mucosal injury and scored according to the Table below.” for “dose, five cm of intestine were cleaned in cold saline then weighed.”
Briefly, colitis was induced by injecting 4% acetic acid into the rectum.

human PDE3A = human PDE3A (Homo sapiens, UniProt Q14432); assay: PDE-Glo phosphodiesterase assay, PDE3; type: biochemical; conditions: 2.75 ng PDE3A, 1 μM cAMP substrate, 15 min pre-incubation; read-out: IC50, inhibition of PDE3
human PDE3A, sequence (Q14432 whole entry): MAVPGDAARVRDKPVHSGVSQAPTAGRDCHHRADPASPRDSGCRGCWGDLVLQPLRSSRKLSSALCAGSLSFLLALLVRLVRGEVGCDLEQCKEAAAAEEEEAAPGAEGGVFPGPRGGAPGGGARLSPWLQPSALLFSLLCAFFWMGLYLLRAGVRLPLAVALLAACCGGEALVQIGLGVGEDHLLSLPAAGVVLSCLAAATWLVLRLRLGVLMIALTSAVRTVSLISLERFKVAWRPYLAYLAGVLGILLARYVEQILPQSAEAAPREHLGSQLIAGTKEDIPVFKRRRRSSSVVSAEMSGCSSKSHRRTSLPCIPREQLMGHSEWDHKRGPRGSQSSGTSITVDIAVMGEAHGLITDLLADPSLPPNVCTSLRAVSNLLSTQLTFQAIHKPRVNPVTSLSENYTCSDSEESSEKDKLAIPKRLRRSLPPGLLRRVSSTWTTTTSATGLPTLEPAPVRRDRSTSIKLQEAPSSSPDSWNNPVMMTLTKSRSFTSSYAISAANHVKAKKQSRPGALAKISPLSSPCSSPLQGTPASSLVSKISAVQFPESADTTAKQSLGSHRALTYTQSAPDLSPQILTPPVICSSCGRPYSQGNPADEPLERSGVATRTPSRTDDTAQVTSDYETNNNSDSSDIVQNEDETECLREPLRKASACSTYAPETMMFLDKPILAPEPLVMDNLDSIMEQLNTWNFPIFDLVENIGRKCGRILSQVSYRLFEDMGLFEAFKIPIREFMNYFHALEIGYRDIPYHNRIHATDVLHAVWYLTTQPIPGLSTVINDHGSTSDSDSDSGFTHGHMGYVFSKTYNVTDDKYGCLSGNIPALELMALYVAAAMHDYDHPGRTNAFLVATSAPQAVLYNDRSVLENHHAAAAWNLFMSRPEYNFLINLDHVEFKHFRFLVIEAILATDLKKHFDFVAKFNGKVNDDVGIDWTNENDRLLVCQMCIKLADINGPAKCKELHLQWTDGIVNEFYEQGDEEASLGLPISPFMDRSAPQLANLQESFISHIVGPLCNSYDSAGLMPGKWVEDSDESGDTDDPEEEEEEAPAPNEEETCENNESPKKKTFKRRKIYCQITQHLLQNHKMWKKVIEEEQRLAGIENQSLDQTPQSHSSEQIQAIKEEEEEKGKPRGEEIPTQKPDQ
Experimental: Method for FIG. 3. […] The compounds and PDE3A were mixed and pre-incubated at room temperature for 15 minutes. Substrate was added and the reaction was incubated for 7 minutes at room temperature. Data are presented as luminescence units (RLU).
Method for FIG. 4. Phosphodiesterase inhibition assays of PDE3 were performed using PMX-60056. The PDE-Glo phosphodiesterase assay (Promega, Madison, WI, USA Catalog No. V1361) was performed according to manufacturer's instruction using 2.75 ng of PDE3A, 1 μM cAMP substrate and PMX60056. The compounds and PDE3A were mixed and pre-incubated at room temperature for 15 minutes. Substrate was added and the reaction was incubated for 7 minutes at room temperature. Data are presented as luminescence units (RLU).
The compounds and PDE3A were mixed and pre-incubated at room temperature for 15 minutes. Substrate was added and the reaction was incubated. […]
(§2) PDE4 and PDE3 inhibition results in subsequent down-regulation of pro-inflammatory cytokines/chemokines and its regulators, and experiments were conducted to confirm such down-regulation by brilacidin in ex vivo cell-based assays. In these assays, cells were exposed to brilacidin 45 minutes before an 8-hour lipopolysaccharide (LPS) stimulation in the presence of brilacidin; cytokine/enzyme concentrations were determined by ELISA using a standard immunoassay kit.

[2] = test system: LPS-induced TNF-α release, NR8383 cells; assay: LPS-induced TNF-α production in NR8383 rat macrophages (ELISA); type: cell-based
Experimental: Method for FIG. 5. TNF-alpha assays were performed using PMX-30063. […] TNF-α concentrations in the supernatants were determined by ELISA using an immunoassay kit specific for rat TNF-α (R&D Systems, Minneapolis, MN) according to manufacturer's instructions.
Method for FIG. 6. TNF-alpha assays were performed using PMX-60056. NR8383 rat macrophage cells were pretreated with PMX-60056 for 45 minutes followed by treatment with 1 μg/ml LPS from E. coli (Sigma, St. Louis, MO) for 8 hours. TNF-α concentrations in the supernatants were determined by ELISA using an immunoassay kit specific for rat TNF-α (R&D Systems, Minneapolis, MN) according to manufacturer's instructions.
The TNF-α inhibition assay was performed according to the Method described for FIG. 5. […] TNF-α concentrations in the supernatants were determined by ELISA using an immunoassay kit specific for rat TNF-α (R&D Systems).
The TNF-α inhibition assay was performed according to the Method described for FIG. 6. NR8383 rat macrophage cells (CRL-2192. ATCC) were pretreated with PMX-60056 for 45 minutes followed by treatment with 1 μg/ml LPS for 8 hours. TNF-α concentrations in the supernatants were determined by ELISA using an immunoassay kit specific for rat TNF-α (R&D Systems).
as §2

human PDE4B2 = human PDE4B2 (Homo sapiens, UniProt Q07343); assay: PDE-Glo phosphodiesterase assay, PDE4; type: biochemical; conditions: 8 ng PDE4B, 1 μM cAMP substrate, 15 min pre-incubation; read-out: IC50, inhibition of PDE4
human PDE4B2, sequence (Q07343 1-564 isoform Q07343-2): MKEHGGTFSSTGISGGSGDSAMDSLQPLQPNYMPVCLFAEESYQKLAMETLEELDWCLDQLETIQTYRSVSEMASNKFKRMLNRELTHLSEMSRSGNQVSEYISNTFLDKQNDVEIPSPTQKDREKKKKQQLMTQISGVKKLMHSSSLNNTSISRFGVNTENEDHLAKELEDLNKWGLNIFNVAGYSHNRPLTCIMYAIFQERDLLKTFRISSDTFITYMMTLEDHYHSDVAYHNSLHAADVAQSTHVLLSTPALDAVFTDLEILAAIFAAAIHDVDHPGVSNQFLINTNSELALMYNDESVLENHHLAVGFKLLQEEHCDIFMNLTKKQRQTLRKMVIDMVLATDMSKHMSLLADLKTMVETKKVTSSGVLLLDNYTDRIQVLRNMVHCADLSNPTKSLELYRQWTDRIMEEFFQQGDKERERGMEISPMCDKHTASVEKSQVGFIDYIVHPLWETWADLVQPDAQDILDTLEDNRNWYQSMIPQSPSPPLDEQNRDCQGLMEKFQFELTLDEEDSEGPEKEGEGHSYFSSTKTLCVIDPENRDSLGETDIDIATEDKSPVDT
Experimental: Method for FIG. 1. […] The compounds and PDE4B (BPS Biosciences, San Diego, CA) were mixed and pre-incubated at room temperature for 15 minutes. Substrate was added and the reaction was incubated for 7 minutes at room temperature. Data are presented as luminescence units (RLU).
Method for FIG. 2. Phosphodiesterase inhibition assays of PDE4 were performed, using PMX-60056. The PDE-Glo phosphodiesterase assay (Promega, Madison, WI, USA Catalog No. V1361) was performed using 8 ng of PDE4B (BPS Biosciences, San Diego, CA). […] The compounds and PDE4B were mixed and pre-incubated at room temperature for 15 minutes. Substrate was added and the reaction was incubated for 7 minutes at room temperature. Data are presented as luminescence units (RLU).
Phosphodiesterase type 4 (PDE4) is predominant phosphodiesterase expressed in neutrophils, T cells and macrophages. PDE inhibitors show broad spectrum of anti-inflammatory effects in almost all inflammatory cells. PDE4 inhibitors, block the degradative action of PDE4 on cAMP, thereby increasing intracellular levels of cAMP levels which mediate phosphorylation of protein kinases. […] Data are presented as luminescence units (RLU).
The PDE-Glo phosphodiesterase assay was performed according to the Method described for FIG. 2, using 8 ng of PDE4B, 1 μM cAMP substrate PMX-60056. Data are presented as luminescence units (RLU). […]

[3] = test system: LPS-induced MCP-1 release, NR8383 cells; assay: LPS-induced MCP-1 release in NR8383 rat macrophages (ELISA); type: cell-based
Experimental: Method for FIG. 7. […] After 8 hours, supernatants were collected for MCP-1 measurement by ELISA. MCP-1 was measured using an immunoassay kit according to manufacturer's instructions (Thermo Scientific, Rockford. IL).
Method for FIG. 8. MCP-1 assays were performed using PMX-60056. Rat macrophages (NR8383) were pretreated with […] with concentrations shown for 45 minutes, followed by 1 μg/ml LPS treatment from E. coli (Sigma, St. Louis, MO) for 8 hours. After 8 hours, supernatants were collected for MCP-1 measurement by ELISA. MCP-1 was measured using an immunoassay kit according to manufacturer's instructions (Thermo Scientific, Rockford, IL).
The MCP-1 inhibition assay was performed according to the Method described for FIG. 7.
The MCP-1 inhibition assay was performed according to the Method described for FIG. 8.
as §2

SMILES | mean reduction in IL-1β in distal colon tissue compared to DSS-treated control group (DSS-induced colitis) | mean reduction in IL-6 in distal colon tissue compared to DSS-treated control group (DSS-induced colitis) | reduction of UC score ([1]; 5-ASA group, not significantly) | efficacy on ulcerative colitis score (in words) ([1]; 5-ASA positive control group) | IC50 (human PDE3A) | effect on LPS-induced TNF-α production (in words) ([2]; NR8383, 45 min pretreatment, 1 μg/ml LPS 8 h) | inhibition at 0.0625 µM ([2]; Rattus norvegicus, Macrophage, at 62.5 nM PMX-60056, NR8383, LPS 1 μg/ml 8 h) | IC50 (human PDE4B2) | effect on MCP-1 induction after LPS stimulation (in words) ([3]; NR8383, 45 min pretreatment, LPS 1 μg/ml 8 h) | decrease in MCP-1 levels ([3]; at 0.5 μM, NR8383, LPS 1 μg/ml 8 h)
Nc1ccc(O)c(C(=O)O)c1 [5-ASA, 5-aminosalicylic acid, reference compound] | 33% | 86% | 67% | no significant efficacy |  |  |  |  |  | 
COc1ccc(NC(=O)[C@H](CCCCN)NC(=O)c2cc(NC(=O)[C@H](CCCCN)NC(=O)c3cc(NC(=O)[C@H](CCCCN)NC(=O)c4cc(NC(=O)[C@@H](N)CCCCN)ccc4OC)ccc3OC)ccc2OC)cc1C(N)=O [PMX-60056] |  |  |  |  | 3 µM | inhibited | > 50% | ~3 µM | strong inhibition | ≥ 25%
